# EP2727916A1, “Neuroprotective multi-target directed drugs” (Universitat Autònoma de Barcelona, priority 2012, dated 2014)
# Assays:
# bovine lung SSAO = biological target: T1, bovine lung SSAO (Bos taurus, UniProt Q9TTK6); assay: Inhibition of semicarbazide sensitive amine oxidase (SSAO), radiochemical; format: biochemical
# T1 construct: and bovine lung SSAO by compounds of the invention; from tissue; host or cells: bovine lung
# T1 sequence (Q9TTK6 1-763): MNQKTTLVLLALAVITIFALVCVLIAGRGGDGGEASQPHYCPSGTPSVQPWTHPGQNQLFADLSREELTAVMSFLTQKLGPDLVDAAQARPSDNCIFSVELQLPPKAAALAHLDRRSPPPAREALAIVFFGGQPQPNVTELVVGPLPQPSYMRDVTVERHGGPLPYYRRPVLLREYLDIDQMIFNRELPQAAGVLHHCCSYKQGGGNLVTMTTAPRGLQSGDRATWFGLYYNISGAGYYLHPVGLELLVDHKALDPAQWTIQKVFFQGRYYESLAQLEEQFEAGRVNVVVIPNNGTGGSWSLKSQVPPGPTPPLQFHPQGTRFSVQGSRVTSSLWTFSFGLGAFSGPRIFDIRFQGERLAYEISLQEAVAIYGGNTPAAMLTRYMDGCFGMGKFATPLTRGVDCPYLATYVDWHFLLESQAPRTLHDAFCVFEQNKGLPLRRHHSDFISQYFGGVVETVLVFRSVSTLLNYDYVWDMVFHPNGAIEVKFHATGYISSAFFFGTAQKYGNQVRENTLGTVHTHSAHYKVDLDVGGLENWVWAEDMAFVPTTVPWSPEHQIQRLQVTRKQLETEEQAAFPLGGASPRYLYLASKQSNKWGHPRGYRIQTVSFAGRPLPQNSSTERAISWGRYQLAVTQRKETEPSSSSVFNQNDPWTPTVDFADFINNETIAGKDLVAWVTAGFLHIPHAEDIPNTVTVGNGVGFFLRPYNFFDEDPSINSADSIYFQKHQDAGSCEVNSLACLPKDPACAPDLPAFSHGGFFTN
# [1] = Metal binding assay, spectrophotometric detection of Cu(II) complex; format: physicochemical; conditions: 10 µM, Tris buffer pH7.4, Cu(SO4) 6.25 and 12.5 µM, few minutes after addition
# Method: (§1) Lineweaver-Burk reciprocal plots of initial velocity and substrate concentrations (0.1-1 mM) are presented. […] Lineweaver-Burk reciprocal plots of initial velocity and substrate concentrations (0.1-1 mM) are presented. […] Lineweaver-Burk reciprocal plots of initial velocity and substrate concentrations (0.1-1 mM) are presented. […] Three consecutive centrifuges were performed with buffer. […] 5 µM). All solution were made using Tris buffer pH7.4. […] 5 µM). All solution were made using Tris buffer pH7.4. […] 5 µM). All solution were made using Tris buffer pH7.4. Spectra were obtained after a Short-time incubation
# It is known that 8-quinolinol is a strong chelator for biometals such iron and copper. This is an important precondition for the antioxidative-type drugs because it is the excessive iron stores and iron-mediated generation of free radicals in the brain that are thought to be associated with neurodegenerative diseases. Therefore, only chelators with a higher selectivity for iron over copper are expected to chelate iron instead of copper and have potential neuroprotective effects. […] A spectrophotometric method is used for measurement of the copper/iron-complexes stability constants of the compounds.
# The metal binding assay was performed by the spectrophotometric detection of the formation of Fe(III)- and Cu(II)-6 complex.
# ratMAO-B [2] = biological target: T2, ratMAO-B (Rattus norvegicus, UniProt P19643); assay: Kinetic study of MAO-B inhibition (Lineweaver-Burk plots); format: biochemical; parameters: from tissue; host or cells: rat brain homogenate per the methods
# T2 sequence (P19643 1-520): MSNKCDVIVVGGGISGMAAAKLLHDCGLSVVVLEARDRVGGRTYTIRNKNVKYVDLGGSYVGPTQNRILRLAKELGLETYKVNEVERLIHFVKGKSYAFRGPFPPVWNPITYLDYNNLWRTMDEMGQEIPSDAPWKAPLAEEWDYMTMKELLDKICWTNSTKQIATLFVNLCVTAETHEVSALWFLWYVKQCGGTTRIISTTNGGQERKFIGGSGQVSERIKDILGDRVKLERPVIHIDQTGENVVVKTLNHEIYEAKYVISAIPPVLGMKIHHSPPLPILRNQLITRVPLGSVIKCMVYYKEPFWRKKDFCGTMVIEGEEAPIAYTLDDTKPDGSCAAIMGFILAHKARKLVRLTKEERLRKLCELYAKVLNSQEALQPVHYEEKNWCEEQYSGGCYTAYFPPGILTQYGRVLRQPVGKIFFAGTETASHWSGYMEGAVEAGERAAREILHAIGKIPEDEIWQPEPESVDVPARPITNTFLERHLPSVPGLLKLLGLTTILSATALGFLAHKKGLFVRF
# Method: as §1
# ratMAO-B [3] = biological target: T2, ratMAO-B; assay: MAO-B inhibition, radiometric method of Fowler and Tipton (14C PEA); format: biochemical; parameters: MAO-A and MAO-B activities were determined in rat brain homogenate; from tissue; host or cells: rat brain homogenate per the methods
compound,measurement,setting,value
"C#CCN(Cc1ccc(O)c2ncccc12)C(C#N)CCC1CCN(Cc2ccccc2)CC1 (stereo not shown) [Compound 6, 4-(1-benzylpiperidin-4-yl)-2-(((8-hydroxyquinolin-5-yl)methyl)(prop-2-yny)amino)butanenitrile]",IC50,bovine lung SSAO,2.01 ± 0.5 µM
same,"formation of Cu(II)-6 complex, UV-vis spectrum change",[1],The 240 nm-band completely dissapeared while a new one appeared at 275 nm
same,type of MAO-B inhibition mechanism,ratMAO-B [2]; Lineweaver-Burk reciprocal plots,non-competitive inhibition
same,Ki,ratMAO-B [2]; estimated from the slopes of double reciprocal plots,10.8 ± 2.43 µM
same,IC50,ratMAO-B [3],10.2 ± 0.9 µM
same,MAO-B/ MAO-A,ratMAO-B [3],1.7
same,fold less active than M-30 for the inhibition of MAO-B,ratMAO-B [3],179 fold
